Measured values taken from US7153869B2, “Substituted amino acids as erythropoietin mimetics” (priority 1998, dated 2006).
Where two headings read alike, the source gives them in different places.

Biological target: T1, EBP-Ig (N-terminal 225 amino acids of the human EPO receptor joined to an Ig heavy chain) (Homo sapiens, UniProt P19235)
T1 construct: Ig heavy chain (fusion partner); made in house; host or cells: NSO cells (secreted into conditioned media)
T1 sequence (P19235 25-250 limits assumed): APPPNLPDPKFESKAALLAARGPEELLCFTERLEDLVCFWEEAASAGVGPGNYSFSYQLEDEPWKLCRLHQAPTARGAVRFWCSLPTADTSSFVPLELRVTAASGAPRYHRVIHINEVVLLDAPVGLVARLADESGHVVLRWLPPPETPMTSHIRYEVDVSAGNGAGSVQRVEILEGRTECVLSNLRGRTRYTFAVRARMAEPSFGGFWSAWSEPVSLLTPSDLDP
Test: Inhibition of [125I]EPO binding to immobilized EBP-Ig (EPO binding protein-Ig), scintillation Flash plate competition assay
Conditions: for IC30 μM (Inhibition of EPO binding to EBP-Ig): 0–500 μM test compound; for % inh @ 50 μM (Inhibition of EPO binding to EBP-Ig): 50 μM test compound, average % inhibition
From the text: The interaction of biotin and streptavidin is frequently employed to capture and effectively immobilize reagents useful in assay protocols and has been employed here as a simple method to capture and immobilize EBP-Ig. EBP-Ig is initially randomly modified with an amine reactive derivative of biotin to produce biotinylated-EBP-Ig. Use of streptavidin coated plates allows the capture of the biotinylated EBP-Ig on the surface of a scintillant impregnated coated well (Flash plates, NEN-DuPont). […] The amount of light produced was quantified to estimate the amount of ligand binding. The specific assay format was suitable for the multi-well plate capacity of a Packard TopCount Microplate Scintillation counter.
Biotinylated EBP-Ig was prepared as follows. EBP-Ig (3 mL, OD280 2.9) was exchanged into 50 mM sodium bicarbonate, pH 8.5 using a Centriprep 10 ultrafiltration device. The final volume of the exchanged protein was 1.2 mL (OD280 2.6, representing about 2 mg total protein). 10 μL of a 4 mg/ml solution of NHS-LC-Biotin (Pierce) was added and the reaction mixture placed on ice in the dark for two hours. Unreacted biotin was removed by exchange of the reaction buffer into PBS in a Centriprep 10 device and the protein reagent aliquoted and stored at −70° C.
All wells were adjusted to a final DMSO concentration of 5%. […] After all additions were made, the plate was covered with an adhesive top seal and placed in the dark at room temperature overnight. The next day all liquid was aspirated from the wells to limit analyte dependent quench of the signal, and the plates were counted on a Packard TOPCOUNT Microplate Scintillation Counter. […] Corrected total binding (CTB) was calculated as: TB−NSB=CTB. […] Table 1 lists the average % inhibition, and if determined the IC50 and IC30 values for compounds of Formula I, where the compound numbers refer to the compounds in the tables accompanying the preparative examples.

SMILES: N=C(N)NCCCC(C(=O)O)N(CC=Cc1cccs1)CC=Cc1cccs1 (stereo not shown) [compound 49]
- EPO/EBP-Ig % inh @ 50 μM (Table 3, 50 μM): 1%

SMILES: O=C(O)CCC(C(=O)O)N(CC=Cc1cccs1)CC=Cc1cccs1 (stereo not shown) [compound 52]
- EPO/EBP-Ig % inh @ 50 μM (Table 3, 50 μM): 21%

SMILES: O=C(O)CC(C(=O)O)N(CC=Cc1cccs1)CC=Cc1cccs1 (stereo not shown) [compound 53]
- EPO/EBP-Ig % inh @ 50 μM (Table 3, 50 μM): 14%

SMILES: CC(C(=O)O)N(CC=Cc1cccs1)CC=Cc1cccs1 (stereo not shown) [compound 54]
- EPO/EBP-Ig % inh @ 50 μM (Table 3, 50 μM): 18%

SMILES: NC(=O)CCC(C(=O)O)N(CC=Cc1cccs1)CC=Cc1cccs1 (stereo not shown) [compound 55]
- EPO/EBP-Ig % inh @ 50 μM (Table 3, 50 μM): 4%

SMILES: O=C(NCCCCC(C(=O)OCc1ccccc1)N(CC=Cc1cccs1)CC=Cc1cccs1)OCc1ccccc1 (stereo not shown) [compound 57]
- EPO/EBP-Ig % inh @ 50 μM (Table 3, 50 μM): 0%

SMILES: COC(=O)C(CCC(=O)OC(C)(C)C)N(CC=Cc1cccs1)CC=Cc1cccs1 (stereo not shown) [compound 59]
- EPO/EBP-Ig % inh @ 50 μM (Table 3, 50 μM): 26%

SMILES: CCOC(=O)CCC(C(=O)OC)N(C/C=C/c1cccs1)C/C=C/c1cccs1 (stereo not shown) [compound 60]
- EPO/EBP-Ig % inh @ 50 μM (Table 3, 50 μM): 9%

SMILES: COC(=O)C(CCC(=O)O)N(C/C=C/c1cccs1)C/C=C/c1cccs1 (stereo not shown) [compound 61]
- EPO/EBP-Ig % inh @ 50 μM (Table 3, 50 μM): 14%

SMILES: O=C(O)CC(C(=O)O)N(Cc1cccc(NCc2ccccc2)c1)Cc1cccc(Oc2ccccc2)c1 (stereo not shown) [compound 63]
- EPO/EBP-Ig % inh @ 50 μM (Table 4, 50 μM): 20%

SMILES: Cc1ccc(S(=O)(=O)Nc2cccc(CN(Cc3cccc(NS(=O)(=O)c4ccc(C)cc4)c3)C(CC(=O)O)C(=O)O)c2)cc1 (stereo not shown) [compound 65]
- EPO/EBP-Ig % inh @ 50 μM (Table 4, 50 μM): −7%

SMILES: O=C(O)CC(C(=O)O)N(Cc1cccc(NCc2cccc(Cl)c2)c1)Cc1cccc(Oc2ccccc2)c1 (stereo not shown) [compound 66]
- EPO/EBP-Ig % inh @ 50 μM (Table 4, 50 μM): −16%

SMILES: O=C(O)CC(C(=O)O)N(Cc1cccc(NCc2cccc(Br)c2)c1)Cc1cccc(Oc2ccccc2)c1 (stereo not shown) [compound 67]
- EPO/EBP-Ig % inh @ 50 μM (Table 4, 50 μM): −8%

SMILES: O=C(O)CC(C(=O)O)N(Cc1cccc(NCc2ccccc2F)c1)Cc1cccc(Oc2ccccc2)c1 (stereo not shown) [compound 68]
- EPO/EBP-Ig % inh @ 50 μM (Table 4, 50 μM): −13%

SMILES: Cc1ccccc1CNc1cccc(CN(Cc2cccc(Oc3ccccc3)c2)C(CC(=O)O)C(=O)O)c1 (stereo not shown) [compound 69]
- EPO/EBP-Ig % inh @ 50 μM (Table 4, 50 μM): −13%

SMILES: O=C(O)CC(C(=O)O)N(Cc1cccc(NCc2ccc(F)cc2)c1)Cc1cccc(Oc2ccccc2)c1 (stereo not shown) [compound 70]
- EPO/EBP-Ig % inh @ 50 μM (Table 4, 50 μM): −8%

SMILES: Cc1ccc(Oc2cccc(CN(Cc3cccc(NCc4cccc(Cl)c4)c3)C(CC(=O)O)C(=O)O)c2)cc1 (stereo not shown) [compound 71]
- EPO/EBP-Ig % inh @ 50 μM (Table 4, 50 μM): −6%

SMILES: Cc1ccc(Oc2cccc(CN(Cc3cccc(NCc4c(F)c(F)c(F)c(F)c4F)c3)C(CC(=O)O)C(=O)O)c2)cc1 (stereo not shown) [compound 72]
- EPO/EBP-Ig % inh @ 50 μM (Table 4, 50 μM): −14%

SMILES: Cc1ccc(Oc2cccc(CN(Cc3cccc(NCc4ccccc4F)c3)C(CC(=O)O)C(=O)O)c2)cc1 (stereo not shown) [compound 73]
- EPO/EBP-Ig % inh @ 50 μM (Table 4, 50 μM): −13%

SMILES: Cc1ccc(Oc2cccc(CN(Cc3cccc(NCc4cccc(C#N)c4)c3)C(CC(=O)O)C(=O)O)c2)cc1 (stereo not shown) [compound 74]
- EPO/EBP-Ig % inh @ 50 μM (Table 4, 50 μM): −7%

SMILES: Cc1ccc(Oc2cccc(CN(Cc3cccc(NCc4ccccc4)c3)C(CC(=O)O)C(=O)O)c2)cc1 (stereo not shown) [compound 75]
- EPO/EBP-Ig % inh @ 50 μM (Table 4, 50 μM): −2%

SMILES: CC(C)(C)OC(=O)CC(C(=O)OC(C)(C)C)N(C/C=C/c1cccc(Oc2ccccc2)c1)Cc1cccc(Oc2ccccc2)c1 (stereo not shown) [compound 76]
- EPO/EBP-Ig % inh @ 50 μM (Table 5, 50 μM): 25%

SMILES: O=C(O)CC(C(=O)O)N(C/C=C/c1cccc(Oc2ccccc2)c1)Cc1cccc(Oc2ccccc2)c1 (stereo not shown) [compound 77]
- IC50: 40 µM
- IC30 μM (Inhibition of EPO binding to EBP-Ig) (0.5 nM [125I]EPO): 30 µM
- inhibition at 50 µM (read-out: % inh @ 50 μM (Inhibition of EPO binding to EBP-Ig)): 52%
- inhibition at 50 µM (read-out: EPO/EBP-Ig % inh @ 50 μM, Table 5, 50 μM): 52%

SMILES: COc1ccc(C(=O)Nc2ccc(/C=C/CN(Cc3ccc(OCc4ccccc4)cc3)C(CCC(=O)O)C(=O)O)cc2)cc1 (stereo not shown) [compound 82]
- % inh @ 50 μM (Inhibition of EPO binding to EBP-Ig) (0.5 nM [125I]EPO): 32%
- EPO/EBP-Ig % inh @ 50 μM (Table 5, 50 μM): 32%

SMILES: O=C(O)CCCC(=O)Nc1ccc(/C=C/CN(Cc2ccc(OCc3ccccc3)cc2)C(CCC(=O)O)C(=O)O)cc1 (stereo not shown) [compound 83]
- EPO/EBP-Ig % inh @ 50 μM (Table 5, 50 μM): 18%

SMILES: O=C(O)CCC(C(=O)O)N(C/C=C/c1ccc(NC(=O)C(F)(F)C(F)(F)F)cc1)Cc1ccc(OCc2ccccc2)cc1 (stereo not shown) [compound 84]
- EPO/EBP-Ig % inh @ 50 μM (Table 5, 50 μM): 14%

SMILES: O=C(O)CCC(C(=O)O)N(C/C=C/c1ccc(NC(=O)C(F)(F)F)cc1)Cc1ccc(OCc2ccccc2)cc1 (stereo not shown) [compound 85]
- EPO/EBP-Ig % inh @ 50 μM (Table 5, 50 μM): 20%

SMILES: O=C(O)CCC(C(=O)O)N(C/C=C/c1ccc(NC(=O)c2ccncc2)cc1)Cc1ccc(OCc2ccccc2)cc1 (stereo not shown) [compound 86]
- % inh @ 50 μM (Inhibition of EPO binding to EBP-Ig) (0.5 nM [125I]EPO): 37%
- EPO/EBP-Ig % inh @ 50 μM (Table 5, 50 μM): 37%

SMILES: Cc1ccc(S(=O)(=O)Nc2ccc(/C=C/CN(Cc3ccc(OCc4ccccc4)cc3)C(CCC(=O)O)C(=O)O)cc2)cc1 (stereo not shown) [compound 87]
- EPO/EBP-Ig % inh @ 50 μM (Table 5, 50 μM): 23%

SMILES: O=C(O)CCC(C(=O)O)N(C/C=C/c1ccc(NC(=O)CC2(CC(=O)O)CCCC2)cc1)Cc1ccc(OCc2ccccc2)cc1 (stereo not shown) [compound 88]
- EPO/EBP-Ig % inh @ 50 μM (Table 5, 50 μM): 10.3%

SMILES: O=C(O)CCC(C(=O)O)N(C/C=C/c1ccc(NC(=O)Oc2ccccc2)cc1)Cc1ccc(OCc2ccccc2)cc1 (stereo not shown) [compound 89]
- EPO/EBP-Ig % inh @ 50 μM (Table 5, 50 μM): 22%

SMILES: O=C(O)CCC(C(=O)O)N(C/C=C/c1ccc(NC(=O)c2ccc(-c3ccccc3)cc2)cc1)Cc1ccc(OCc2ccccc2)cc1 (stereo not shown) [compound 90]
- EPO/EBP-Ig % inh @ 50 μM (Table 5, 50 μM): 29%

SMILES: O=C(O)CCC(C(=O)O)N(C/C=C/c1ccc(NC(=O)c2ccc([N+](=O)[O-])cc2)cc1)Cc1ccc(OCc2ccccc2)cc1 (stereo not shown) [compound 91]
- EPO/EBP-Ig % inh @ 50 μM (Table 5, 50 μM): 19%

SMILES: COC(=O)C(CCC(=O)O)N(C/C=C/c1ccccc1)C/C=C/c1ccccc1 (stereo not shown) [compound 92]
- EPO/EBP-Ig % inh @ 50 μM (Table 6, 50 μM): 20%

SMILES: COC(=O)C(CCC(=O)OC(C)(C)C)N(C/C=C/c1ccccc1)C/C=C/c1ccccc1 (stereo not shown) [compound 93]
- EPO/EBP-Ig % inh @ 50 μM (Table 6, 50 μM): 20%

SMILES: CCOC(=O)CCC(C(=O)OC)N(C/C=C/c1ccccc1)C/C=C/c1ccccc1 (stereo not shown) [compound 94]
- EPO/EBP-Ig % inh @ 50 μM (Table 6, 50 μM): 25%

SMILES: COC(=O)C(CCC(=O)OC(C)(C)C)N(C/C=C/c1cccc2ccccc12)C/C=C/c1cccc2ccccc12 (stereo not shown) [compound 95]
- EPO/EBP-Ig % inh @ 50 μM (Table 6, 50 μM): 15%

SMILES: CC(C)(C)OC(=O)CCC(C(=O)O)N(C/C=C/c1ccc2ccccc2c1)C/C=C/c1ccc2ccccc2c1 (stereo not shown) [compound 97]
- EPO/EBP-Ig % inh @ 50 μM (Table 6, 50 μM): 14%

SMILES: COC(=O)C(CCC(=O)OC(C)(C)C)N(C/C=C/c1cccc(Oc2ccc(Cl)c(Cl)c2)c1)C/C=C/c1cccc(Oc2ccc(Cl)c(Cl)c2)c1 (stereo not shown) [compound 99]
- EPO/EBP-Ig % inh @ 50 μM (Table 6, 50 μM): 13%

SMILES: COC(=O)C(CCC(=O)O)N(C/C=C/c1cccc(Oc2ccc(Cl)c(Cl)c2)c1)C/C=C/c1cccc(Oc2ccc(Cl)c(Cl)c2)c1 (stereo not shown) [compound 101]
- % inh @ 50 μM (Inhibition of EPO binding to EBP-Ig) (0.5 nM [125I]EPO): 32%
- EPO/EBP-Ig % inh @ 50 μM (Table 6, 50 μM): 32%

SMILES: CC(C)(C)OC(=O)CCC(C(=O)OC(C)(C)C)N(C/C=C/c1cccc(Oc2ccc(C(C)(C)C)cc2)c1)C/C=C/c1cccc(Oc2ccc(C(C)(C)C)cc2)c1 (stereo not shown) [compound 102]
- EPO/EBP-Ig % inh @ 50 μM (Table 6, 50 μM): 5%

SMILES: CC(C)(C)OC(=O)CCC(C(=O)OC(C)(C)C)N(C/C=C/c1cccc(Oc2cccc(C(F)(F)F)c2)c1)C/C=C/c1cccc(Oc2cccc(C(F)(F)F)c2)c1 (stereo not shown) [compound 103]
- EPO/EBP-Ig % inh @ 50 μM (Table 6, 50 μM): 17%

SMILES: CC(C)(C)c1ccc(Oc2cccc(/C=C/CN(C/C=C/c3cccc(Oc4ccc(C(C)(C)C)cc4)c3)C(CCC(=O)O)C(=O)O)c2)cc1 (stereo not shown) [compound 104]
- IC30 μM (Inhibition of EPO binding to EBP-Ig) (0.5 nM [125I]EPO): 10 µM
- % inh @ 50 μM (Inhibition of EPO binding to EBP-Ig) (0.5 nM [125I]EPO): 78%
- EPO/EBP-Ig % inh @ 50 μM (Table 6, 50 μM): 78%
- IC50 (read-out: IC50, μM (Inhibition of EPO binding to EBP-Ig), 0.5 nM [125I]EPO, concentration reducing corrected total binding to 50%): 30 µM
